Experimental data published in US5622725A, “Wound disinfection and repair” (Alcide Corporation, priority 1996, dated 1997).

Columns and labels:
[1] = system: Staphylococcus epidermidis biofilms; assay: Sterilization of S. epidermidis biofilms, minimal exposure time at 22° C. (supravital dye, confirmed by culture); assay type: cell-based; details: 22° C.
Text: This example compares and contrasts the cidal effectiveness of compositions of the invention with other disinfectants and antibiotics against Staphylococcus epidermidis biofilms, which are frequently observed on the surface of C.A.P.D. peritoneal catheters even in the absence of peritonitis or exit site infections.
A strain of S. epidermidis with characteristic abundant slime production, and derived from a human source, is used to prepare the biofilms. The isolate is fully sensitive in the fluid phase to all commonly used antibiotics as assayed using routine test methods. Aliquots of the bacteria are frozen at -70° C. in 10% glycerol broth or propagated on 5% defibrinated horse blood agar. Standardized biofilms are formed on soda glass microscope slides or slides coated with Silastic® (the basic material of indwelling catheters; see Cecil's, cited above, on page 542), placed in Petri dishes containing 20 ml of tryptone soya broth (Oxoid Ltd., England), seeded with 10^4 cfu S. epidermidis and incubated for 18 hours at 37° C. Reproducible uniform and confluent S. epidermidis biofilms of minimal density are formed.
(§1) Antibiotic activity against S. epidermidis biofilms are determined using a supravital dye which acts as an electron acceptor in coupled oxidative systems in biofilm bacteria. The method allows the bacteria to be examined undisturbed within the biofilm matrix in situ. Briefly stated, the biofilms are exposed to antibiotic solutions and incubated at […] for varying periods of time. Positive (viable, 1% peptone water) and negative (sterilized, 4% formol-peptone) controls are included in all experiments. After a designated exposure at 22° C. for varying periods of time between 15 seconds to 6 hours, the biofilms are rinsed twice in sterile water and allowed to drain. They are then placed in a flat agar medium incorporating substantive dyes and incubated at 37° C. for 4 hours, then 24 hours. Viability is assessed visually by a change in dye color and confirmed after 24 hours by mechanically scraping and subsequently culturing the biofilms. Sterilization is indicated by the absence of color changes and confirmed by culture of both intact and mechanically fragmented biofilms. Inhibition of growth is indicated by a lack of color change after a 4-hour incubation and confirmed by a positive color change by 24 hours.

[2] = system: Streptococcus species; assay: Cidal activity of 50 ppm ClO2; assay type: cell-based; details: within one minute
Text: (§2) This invention provides a quick-acting, broad-spectrum antimicrobial, that is not absorbed systemically because it is rapidly eliminated or degraded. The inventive compositions have the requisite, extended range of antimicrobial action, rapidity of kill and degradability for this application. […] ClO2 reacts with oxidizable bonds of these organisms and other organic matter and, as a result, is reduced to lower oxidation states: initially chlorite and ultimately chloride. The latter is present at high levels in the body (ca. 0.5% of cellular fluids), so that the small amount formed by ClO2 degradation (in the parts per million range) would disappear into that pool. Compatability of these disinfecting peritoneal flush solutions is also appropriate, since the ClO2 is generated or dissolved in solutions which have osmotic pressures that are suitably isotonic with cellular fluids.

[3] = system: Klebsiella pneumoniae; assay: Cidal activity of 50 ppm ClO2; assay type: cell-based; details: within one minute
Text: as §2

[4] = system: Bacteroides species; assay: Cidal activity of 50 ppm ClO2; assay type: cell-based; details: within one minute
Text: as §2

[5] = system: Escherichia coli and other coliforms; assay: Cidal activity of 50 ppm ClO2; assay type: cell-based; details: within one minute
Text: as §2

[6] = system: Pseudomonas aeruginosa; assay: Cidal activity of 50 ppm ClO2; assay type: cell-based; details: within one minute
Text: as §2

[7] = system: Staphylococcus species; assay: Cidal activity of 50 ppm ClO2; assay type: cell-based; details: within one minute
Text: as §2

[8] = system: free radicals generated by xanthine oxidase (XO) on xanthine; assay: Scavenging of free radicals generated by xanthine oxidase on xanthine (ferricytochrome C reduction); assay type: biochemical
Text: Since recent studies indicate that the superoxide radical is the active form of oxygen in the prolyl and lysyl hydrolyase reactions during collagen synthesis, this example assesses the effects that compositions of the invention have on free radicals.
Free radicals are generated in vitro by the action of xanthine oxidase (XO) on xanthine. The generation of free radicals is monitored by the reduction of ferricytochrome C by the system. The action of chlorine dioxide is compared with the scavenging action of the well known free radical scavengers superoxide dismutase (SOD) and catalase.
The experiments are divided into three groups. In the first group, 50 μmoles of xanthine, 0.0217 units/mg XO, 0.1 mM EDTA are mixed in a total volume of 1.0 ml Hank's Balanced Salt Solution (HBSS). This generated 64 ±8 nmoles oxygen. In the second group, 0.3125 units/mg SOD and 1,300 units catalase are added to the reagents employed in group 1; this yields 19.4 nmoles oxygen. […] In the third group, chlorine dioxide is substituted for the SOD and catalase in the same system; a chlorine dioxide concentration of about 7.5 ppm inhibits free radical formation by 74% and at a concentration of 15 ppm, by 100%.

[9] = system: S. epidermidis biofilms; assay: Sterilization of S. epidermidis biofilms by diluted 50 ppm ClO2 or formol saline; assay type: cell-based, Staphylococcus epidermidis; details: for minimal time of exposure to effect sterilization: 22° C.
Procedure: as §1
This conclusion is underscored in studies that assess the efficacy of methods employed using compositions of the invention in combination with an infusate used in C A P D and C C P D practice, Inpersol® Abbott Laboratories, Montreal, Canada, which contains 4.25% dextrose and has a pH of 5.2. A 50 ppm ClO2 solution is diluted from 1:2 to 1:10 with normal saline (denoted below as NS), Inpersol® peritoneal dialyzate (denoted as PD), and peptone-saline (a standardized protein digest obtained from Oxoid, denoted as PS). Four percent formol saline, a known potent environmental disinfectant of considerable toxicity, is used as a reference. The results are expressed as the minimal time of exposure at 22° C. to effect sterilization of S. epidermidis biofilms: […]

[10] = Free radical signal by luminometer (modified luminol assay); details: One hundred-fold dilutions, within one minute after mixing
Procedure: ClO2 (75 ppm) is generated by mixing 0.25% chlorite and 1.4% lactic acid. One hundred-fold dilutions are tested within one minute after mixing using electron paramagnetic spectroscopy (ESR) and a LKB luminometer.
The luminometer assay utilizes a modified luminol assay for radical detection. Luminol (LH2) reacts with free radicals (R·) as follows: […]
LOO^- →L2 + AP* (aminophthalate dianion, active state)
The pH optimum for the reaction is 10 to 12. The assay is standardized with an enzymatic system in which the generation of free radicals could be quantified by measuring generation of ·O2^-, obtained with the following reaction, […]
hypoxanthine+xanthine oxidase→urate+·O2^- by the reduction of ferricytochrome C.

**Q.** Which results are given for `[O][Cl+][O-]` [ClO2, chlorine dioxide]?
**A.** Exposure Time (22° C.) for Film Sterilization [1]: 5 s; kill [2]: 6 logs/ml; kill [3]: 6 logs/ml; kill [4]: 6 logs/ml; kill [5]: 6 logs/ml; kill [6]: 6 logs/ml; kill [7]: 6 logs/ml; inhibition of free radical formation ([8]; 15 ppm chlorine dioxide): 100%; inhibition of free radical formation ([8]; about 7.5 ppm chlorine dioxide): 74%; inhibition of free radical formation ([8]; in words): neutralize the superoxide and related radicals; minimal time of exposure to effect sterilization ([9]; dilution 1/2 in normal saline (NS)): 0.25 min; minimal time of exposure to effect sterilization ([9]; dilution 1/2 in peptone-saline (PS)): 1 min; minimal time of exposure to effect sterilization ([9]; dilution 1/2 in peritoneal dialyzate (PD)): 0.083 min; minimal time of exposure to effect sterilization ([9]; dilution 1/3 in normal saline (NS)): 0.5 min; minimal time of exposure to effect sterilization ([9]; dilution 1/3 in peptone-saline (PS)): 3 min; minimal time of exposure to effect sterilization ([9]; dilution 1/3 in peritoneal dialyzate (PD)): 1 min; minimal time of exposure to effect sterilization ([9]; dilution 1/5 in normal saline (NS)): 5 min; minimal time of exposure to effect sterilization ([9]; dilution 1/5 in peptone-saline (PS)): 60 min; minimal time of exposure to effect sterilization ([9]; dilution 1/5 in peritoneal dialyzate (PD)): 5 min; minimal time of exposure to effect sterilization ([9]; dilution 1/7 in normal saline (NS)): 15 min; minimal time of exposure to effect sterilization ([9]; dilution 1/7 in peptone-saline (PS)): 240 min; minimal time of exposure to effect sterilization ([9]; dilution 1/7 in peritoneal dialyzate (PD)): 7 min; minimal time of exposure to effect sterilization ([9]; dilution 1/10 in normal saline (NS)): 60 min; minimal time of exposure to effect sterilization ([9]; dilution 1/10 in peptone-saline (PS)): 1440 min; minimal time of exposure to effect sterilization ([9]; dilution 1/10 in peritoneal dialyzate (PD)): 10 min; effect of diluting with peptone solutions on sterilizing activity ([9]; diluted with peptone solutions): inhibitory effect on the sterilizing activity; effect of peritoneal dialysis solution on antimicrobial activity ([9]; diluted with peritoneal dialysis solution): markedly enhances antimicrobial activity; free radical signal [10]: A strong free radical signal is generated
